Consider 2 compounds from paper PMC9329436, “Optimization of the 4-anilinoquin(az)oline scaffold as epidermal growth factor receptor (EGFR) inhibitors for chordoma utilizing a toxicology profiling assay platform” (Scientific Reports, 2022).

Each structure is given as a SMILES string. Where two headings read alike, the source gives them in different places.

Common to all, as to type: biochemical
For assay [1], the target named is T1, 320 wild-type protein kinases (Homo sapiens, UniProt O15530).
T1 sequence (O15530 1-556): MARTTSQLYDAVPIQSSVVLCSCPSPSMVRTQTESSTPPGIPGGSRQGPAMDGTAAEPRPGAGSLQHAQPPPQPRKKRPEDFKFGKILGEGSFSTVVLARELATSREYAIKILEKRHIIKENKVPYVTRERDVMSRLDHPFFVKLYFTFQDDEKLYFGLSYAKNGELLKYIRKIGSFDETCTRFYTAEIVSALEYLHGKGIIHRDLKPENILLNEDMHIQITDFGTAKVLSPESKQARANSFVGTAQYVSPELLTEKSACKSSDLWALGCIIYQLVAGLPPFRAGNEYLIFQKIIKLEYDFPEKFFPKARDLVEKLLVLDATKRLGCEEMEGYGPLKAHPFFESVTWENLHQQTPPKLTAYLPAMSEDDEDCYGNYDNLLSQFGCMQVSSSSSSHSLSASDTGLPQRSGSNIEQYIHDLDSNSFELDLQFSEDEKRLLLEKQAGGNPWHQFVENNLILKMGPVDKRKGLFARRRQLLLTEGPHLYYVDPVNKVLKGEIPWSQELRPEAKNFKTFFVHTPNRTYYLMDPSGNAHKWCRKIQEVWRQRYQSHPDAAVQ
As to conditions: singlicate. The text has this: (§1) Table S4. Profiling of two compounds at two concentrations against 320 wild-type protein kinases; singlicate measurement; Residual activities (% of control).

Assay [2] deals with 320 wild-type protein kinases (Homo sapiens, UniProt P29317). The note with it: singlicate.
Description: as §1

Assay [3] deals with T2, 320 wild-type protein kinases (Homo sapiens, UniProt P51817).
T2 sequence (P51817 1-358): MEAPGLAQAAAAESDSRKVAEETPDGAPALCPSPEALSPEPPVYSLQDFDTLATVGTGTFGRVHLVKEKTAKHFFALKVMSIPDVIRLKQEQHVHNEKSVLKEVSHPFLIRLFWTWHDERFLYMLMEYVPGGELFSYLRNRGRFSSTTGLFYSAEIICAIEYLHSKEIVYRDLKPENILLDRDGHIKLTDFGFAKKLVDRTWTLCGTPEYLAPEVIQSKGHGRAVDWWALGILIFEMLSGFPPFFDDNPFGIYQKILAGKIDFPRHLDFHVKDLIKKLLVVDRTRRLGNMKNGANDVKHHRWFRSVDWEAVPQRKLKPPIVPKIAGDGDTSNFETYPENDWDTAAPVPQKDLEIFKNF
The note with it: kinase PRKX, singlicate.
Description: as §1

Assay [4] deals with 320 wild-type protein kinases (Homo sapiens, UniProt P68400). The note with it: singlicate.
Description: as §1

For assay [5], the target named is 320 wild-type protein kinases (Homo sapiens, UniProt Q8TDX7). As to conditions: singlicate.
Description: as §1

For assay [6], the target named is T3, 320 wild-type protein kinases (Homo sapiens, UniProt Q9UL54).
T3 sequence (Q9UL54 1-1235): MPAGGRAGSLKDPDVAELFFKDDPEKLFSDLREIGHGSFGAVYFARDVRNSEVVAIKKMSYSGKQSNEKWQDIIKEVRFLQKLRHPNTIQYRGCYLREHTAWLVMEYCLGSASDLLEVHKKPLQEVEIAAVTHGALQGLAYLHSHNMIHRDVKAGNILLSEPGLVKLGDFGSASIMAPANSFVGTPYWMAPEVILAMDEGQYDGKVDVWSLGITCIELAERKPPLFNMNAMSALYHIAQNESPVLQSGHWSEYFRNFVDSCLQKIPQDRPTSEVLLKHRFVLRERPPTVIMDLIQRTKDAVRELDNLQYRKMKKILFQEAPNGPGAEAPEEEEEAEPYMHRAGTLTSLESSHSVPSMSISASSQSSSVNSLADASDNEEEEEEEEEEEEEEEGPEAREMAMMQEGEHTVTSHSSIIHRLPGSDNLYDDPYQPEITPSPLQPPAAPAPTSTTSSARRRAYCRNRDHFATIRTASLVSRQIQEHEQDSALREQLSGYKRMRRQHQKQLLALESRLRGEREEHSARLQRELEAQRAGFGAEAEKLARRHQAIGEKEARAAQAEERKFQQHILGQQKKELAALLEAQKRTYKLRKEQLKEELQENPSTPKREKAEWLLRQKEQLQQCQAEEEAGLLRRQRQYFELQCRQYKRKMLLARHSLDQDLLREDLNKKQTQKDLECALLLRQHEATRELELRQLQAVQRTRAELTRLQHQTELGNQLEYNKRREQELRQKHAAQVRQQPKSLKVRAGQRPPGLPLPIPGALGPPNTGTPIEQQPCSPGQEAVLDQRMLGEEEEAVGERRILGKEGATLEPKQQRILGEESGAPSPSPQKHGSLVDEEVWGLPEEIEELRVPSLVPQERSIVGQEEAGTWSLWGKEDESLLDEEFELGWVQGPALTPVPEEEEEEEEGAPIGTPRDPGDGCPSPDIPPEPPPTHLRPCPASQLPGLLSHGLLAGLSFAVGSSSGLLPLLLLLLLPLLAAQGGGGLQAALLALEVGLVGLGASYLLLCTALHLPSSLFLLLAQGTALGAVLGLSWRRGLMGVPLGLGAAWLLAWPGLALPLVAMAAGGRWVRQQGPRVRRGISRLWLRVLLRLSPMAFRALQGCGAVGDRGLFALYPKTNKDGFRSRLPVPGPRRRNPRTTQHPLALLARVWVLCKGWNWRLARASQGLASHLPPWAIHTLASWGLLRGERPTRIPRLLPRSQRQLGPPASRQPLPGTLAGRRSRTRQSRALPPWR
The note with it: kinase TAOK2, singlicate.
Description: as §1

In assay [7] the target is 320 wild-type protein kinases (Homo sapiens, UniProt Q9UM73). The note with it: ALK (GST-HIS-tag), singlicate.
Description: as §1

Sequence of 320 wild-type protein kinases (Homo sapiens, UniProt P29317) (P29317 24-976): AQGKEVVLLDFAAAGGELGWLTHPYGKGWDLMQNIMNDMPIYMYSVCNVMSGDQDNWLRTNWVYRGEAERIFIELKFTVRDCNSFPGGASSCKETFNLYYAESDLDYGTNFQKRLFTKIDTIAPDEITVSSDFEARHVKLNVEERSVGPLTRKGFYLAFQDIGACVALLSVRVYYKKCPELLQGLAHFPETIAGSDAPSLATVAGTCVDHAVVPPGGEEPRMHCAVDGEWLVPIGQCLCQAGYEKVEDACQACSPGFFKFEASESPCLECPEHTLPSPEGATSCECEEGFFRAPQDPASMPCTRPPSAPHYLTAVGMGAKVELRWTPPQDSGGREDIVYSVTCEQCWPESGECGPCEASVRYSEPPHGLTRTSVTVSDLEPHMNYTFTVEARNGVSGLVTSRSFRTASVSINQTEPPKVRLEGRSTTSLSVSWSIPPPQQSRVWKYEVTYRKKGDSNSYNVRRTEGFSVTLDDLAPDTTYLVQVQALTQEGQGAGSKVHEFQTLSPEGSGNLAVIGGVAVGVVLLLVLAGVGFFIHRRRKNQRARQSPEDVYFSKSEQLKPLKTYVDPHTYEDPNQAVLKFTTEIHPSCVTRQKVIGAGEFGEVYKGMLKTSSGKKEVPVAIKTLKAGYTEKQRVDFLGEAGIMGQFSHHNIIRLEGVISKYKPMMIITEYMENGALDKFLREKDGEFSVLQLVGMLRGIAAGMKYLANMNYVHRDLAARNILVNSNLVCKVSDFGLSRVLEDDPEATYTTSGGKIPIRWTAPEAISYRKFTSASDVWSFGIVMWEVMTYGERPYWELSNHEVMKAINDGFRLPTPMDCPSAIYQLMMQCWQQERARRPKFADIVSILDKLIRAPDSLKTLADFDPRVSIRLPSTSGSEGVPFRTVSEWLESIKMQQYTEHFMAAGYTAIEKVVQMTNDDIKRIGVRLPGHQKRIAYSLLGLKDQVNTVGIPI
Sequence of 320 wild-type protein kinases (Homo sapiens, UniProt Q8TDX7) (Q8TDX7 whole entry): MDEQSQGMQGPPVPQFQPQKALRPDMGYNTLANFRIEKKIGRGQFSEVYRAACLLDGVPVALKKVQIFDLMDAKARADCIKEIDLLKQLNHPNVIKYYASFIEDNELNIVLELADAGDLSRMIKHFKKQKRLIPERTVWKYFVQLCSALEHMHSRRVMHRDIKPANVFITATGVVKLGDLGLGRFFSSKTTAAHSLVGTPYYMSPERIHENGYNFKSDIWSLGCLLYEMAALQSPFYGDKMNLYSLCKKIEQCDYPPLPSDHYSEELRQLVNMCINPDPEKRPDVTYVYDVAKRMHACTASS
Sequence of 320 wild-type protein kinases (Homo sapiens, UniProt P68400) (P68400 whole entry): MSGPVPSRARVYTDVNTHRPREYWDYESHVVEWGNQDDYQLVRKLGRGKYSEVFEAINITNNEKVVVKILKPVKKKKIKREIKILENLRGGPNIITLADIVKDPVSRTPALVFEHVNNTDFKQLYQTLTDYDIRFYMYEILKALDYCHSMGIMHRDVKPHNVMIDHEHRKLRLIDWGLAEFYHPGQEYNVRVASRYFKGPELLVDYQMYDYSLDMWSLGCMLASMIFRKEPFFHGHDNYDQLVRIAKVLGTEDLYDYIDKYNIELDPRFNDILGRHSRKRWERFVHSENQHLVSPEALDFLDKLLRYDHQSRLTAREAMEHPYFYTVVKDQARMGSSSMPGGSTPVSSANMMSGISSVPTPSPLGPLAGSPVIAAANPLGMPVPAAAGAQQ
Sequence of 320 wild-type protein kinases (Homo sapiens, UniProt Q9UM73) (Q9UM73 19-1620): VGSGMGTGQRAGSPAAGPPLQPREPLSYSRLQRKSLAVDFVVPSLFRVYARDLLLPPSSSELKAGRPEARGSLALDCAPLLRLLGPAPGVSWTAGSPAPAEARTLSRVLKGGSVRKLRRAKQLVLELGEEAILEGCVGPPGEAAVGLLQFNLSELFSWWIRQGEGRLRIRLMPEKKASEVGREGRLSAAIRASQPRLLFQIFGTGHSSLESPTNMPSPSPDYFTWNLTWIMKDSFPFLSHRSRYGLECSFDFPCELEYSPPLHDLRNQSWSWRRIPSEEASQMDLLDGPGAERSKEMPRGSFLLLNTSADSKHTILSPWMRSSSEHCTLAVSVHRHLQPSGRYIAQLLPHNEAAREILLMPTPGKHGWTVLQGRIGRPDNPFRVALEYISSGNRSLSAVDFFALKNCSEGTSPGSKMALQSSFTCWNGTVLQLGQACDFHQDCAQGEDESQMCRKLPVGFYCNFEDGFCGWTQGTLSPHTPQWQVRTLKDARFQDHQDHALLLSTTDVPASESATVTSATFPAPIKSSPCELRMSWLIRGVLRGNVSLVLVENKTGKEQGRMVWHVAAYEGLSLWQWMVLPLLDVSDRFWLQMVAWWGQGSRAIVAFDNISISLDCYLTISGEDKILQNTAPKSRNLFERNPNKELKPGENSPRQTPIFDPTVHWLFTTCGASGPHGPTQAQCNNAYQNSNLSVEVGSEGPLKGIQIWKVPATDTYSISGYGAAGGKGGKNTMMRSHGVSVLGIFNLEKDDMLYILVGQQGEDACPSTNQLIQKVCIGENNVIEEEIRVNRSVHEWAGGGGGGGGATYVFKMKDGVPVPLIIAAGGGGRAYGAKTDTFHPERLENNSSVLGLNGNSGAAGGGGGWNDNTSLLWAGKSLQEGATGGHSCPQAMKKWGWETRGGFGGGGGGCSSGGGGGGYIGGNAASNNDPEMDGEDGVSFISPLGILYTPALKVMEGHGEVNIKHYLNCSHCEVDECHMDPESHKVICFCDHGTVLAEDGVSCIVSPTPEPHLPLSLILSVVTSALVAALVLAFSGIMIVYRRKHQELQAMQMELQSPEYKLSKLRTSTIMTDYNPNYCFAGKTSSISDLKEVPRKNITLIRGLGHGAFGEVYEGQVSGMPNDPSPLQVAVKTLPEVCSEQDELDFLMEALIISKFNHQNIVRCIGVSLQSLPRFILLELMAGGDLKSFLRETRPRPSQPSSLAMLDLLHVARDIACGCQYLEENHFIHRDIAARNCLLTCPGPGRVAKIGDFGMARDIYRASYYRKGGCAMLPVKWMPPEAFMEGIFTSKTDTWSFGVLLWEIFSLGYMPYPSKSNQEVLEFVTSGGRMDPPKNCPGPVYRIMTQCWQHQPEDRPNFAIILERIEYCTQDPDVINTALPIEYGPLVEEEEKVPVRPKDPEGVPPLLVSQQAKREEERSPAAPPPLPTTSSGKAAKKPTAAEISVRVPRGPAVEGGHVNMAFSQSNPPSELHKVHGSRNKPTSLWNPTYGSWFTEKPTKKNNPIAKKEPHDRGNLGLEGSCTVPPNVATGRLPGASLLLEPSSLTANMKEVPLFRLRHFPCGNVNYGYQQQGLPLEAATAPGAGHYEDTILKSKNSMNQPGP

For the compound `C#Cc1cc(Nc2ncnc3cc(OC)c(OC)cc23)ccc1Cl` [Compound 45], the Residual activity was 79 % of control in assay [1] (PDK1, 1.0E-06 M); 93 % of control in assay [1] (PDK1, 1.0E-07 M); 81 % of control in assay [2] (EPHA2, 1.0E-06 M); 87 % of control in assay [2] (EPHA2, 1.0E-07 M); 101 % of control in assay [4] (CK2-alpha1, 1.0E-06 M); 109 % of control in assay [4] (CK2-alpha1, 1.0E-07 M). Moreover, the Residual activity in assay [5] (NEK7, 1.0E-06 M) is 107 % of control; in assay [5] (NEK7, 1.0E-07 M), 117 % of control; in assay [7] (1.0E-06 M), 63 % of control; in assay [7] (1.0E-07 M), 102 % of control. For the same compound, the “Residual activity, PRKX” value in assay [3] (assay conc. 1.0E-06 M) is recorded as 118 % of control; in assay [3] (assay conc. 1.0E-07 M), 117 % of control. Further, the “Residual activity, TAOK2” value is 106 % of control in assay [6] (assay conc. 1.0E-06 M) and 109 % of control in assay [6] (assay conc. 1.0E-07 M).
Consider `C#Cc1cc(Nc2ncnc3cc(I)ccc23)ccc1Cl` [Compound 41], for which the Residual activity in assay [1] (PDK1, 1.0E-06 M) is 77 % of control; in assay [1] (PDK1, 1.0E-07 M), 96 % of control; in assay [2] (EPHA2, 1.0E-06 M), 91 % of control; in assay [2] (EPHA2, 1.0E-07 M), 90 % of control; in assay [4] (CK2-alpha1, 1.0E-06 M) it was 99 % of control; in assay [4] (CK2-alpha1, 1.0E-07 M) it was 104 % of control. In addition, the Residual activity in assay [5] (NEK7, 1.0E-06 M) is given as 101 % of control; in assay [5] (NEK7, 1.0E-07 M), 129 % of control; in assay [7] (1.0E-06 M) it was 93 % of control; in assay [7] (1.0E-07 M), 102 % of control. The entries for the “Residual activity, PRKX” value in assay [3] (assay conc. 1.0E-06 M) and in assay [3] (assay conc. 1.0E-07 M) were 123 % of control and 138 % of control, respectively. In addition, the “Residual activity, TAOK2” value in assay [6] (assay conc. 1.0E-06 M) is given as 96 % of control; in assay [6] (assay conc. 1.0E-07 M), 110 % of control.
